Reference: US12539292B2, “BRM targeting compounds and associated methods of use” (Arvinas Operations, Inc., priority 2018, dated 2026)

Target: T1, BRM (Homo sapiens, UniProt P51531)
T1 construct: In-Cell Western Screen of BRM Degradation in SW1573 Cells; endogenous in cells; host or cells: SW1573
Experiment: In-cell Western screen of BRM degradation in SW1573 cells (Dmax and DC50)
Format: cell-based
Conditions: BRM degradation, SW1573 cells; for DC50: read-out: DC50; for Dmax: tested at the top concentration of between 0.3 and 10 μM, read-out: Dmax (%) (% degraded)
In short: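 Overnight compound treatment (18-20 h, final DMSO 0.1%) of SW1573 cells in DMEM with 10% FBS precedes fixation and in-cell Western staining with 800/680 nm dye-labelled secondaries. Plate images give DC50 and maximal degradation.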

T1 sequence (P51531 whole entry): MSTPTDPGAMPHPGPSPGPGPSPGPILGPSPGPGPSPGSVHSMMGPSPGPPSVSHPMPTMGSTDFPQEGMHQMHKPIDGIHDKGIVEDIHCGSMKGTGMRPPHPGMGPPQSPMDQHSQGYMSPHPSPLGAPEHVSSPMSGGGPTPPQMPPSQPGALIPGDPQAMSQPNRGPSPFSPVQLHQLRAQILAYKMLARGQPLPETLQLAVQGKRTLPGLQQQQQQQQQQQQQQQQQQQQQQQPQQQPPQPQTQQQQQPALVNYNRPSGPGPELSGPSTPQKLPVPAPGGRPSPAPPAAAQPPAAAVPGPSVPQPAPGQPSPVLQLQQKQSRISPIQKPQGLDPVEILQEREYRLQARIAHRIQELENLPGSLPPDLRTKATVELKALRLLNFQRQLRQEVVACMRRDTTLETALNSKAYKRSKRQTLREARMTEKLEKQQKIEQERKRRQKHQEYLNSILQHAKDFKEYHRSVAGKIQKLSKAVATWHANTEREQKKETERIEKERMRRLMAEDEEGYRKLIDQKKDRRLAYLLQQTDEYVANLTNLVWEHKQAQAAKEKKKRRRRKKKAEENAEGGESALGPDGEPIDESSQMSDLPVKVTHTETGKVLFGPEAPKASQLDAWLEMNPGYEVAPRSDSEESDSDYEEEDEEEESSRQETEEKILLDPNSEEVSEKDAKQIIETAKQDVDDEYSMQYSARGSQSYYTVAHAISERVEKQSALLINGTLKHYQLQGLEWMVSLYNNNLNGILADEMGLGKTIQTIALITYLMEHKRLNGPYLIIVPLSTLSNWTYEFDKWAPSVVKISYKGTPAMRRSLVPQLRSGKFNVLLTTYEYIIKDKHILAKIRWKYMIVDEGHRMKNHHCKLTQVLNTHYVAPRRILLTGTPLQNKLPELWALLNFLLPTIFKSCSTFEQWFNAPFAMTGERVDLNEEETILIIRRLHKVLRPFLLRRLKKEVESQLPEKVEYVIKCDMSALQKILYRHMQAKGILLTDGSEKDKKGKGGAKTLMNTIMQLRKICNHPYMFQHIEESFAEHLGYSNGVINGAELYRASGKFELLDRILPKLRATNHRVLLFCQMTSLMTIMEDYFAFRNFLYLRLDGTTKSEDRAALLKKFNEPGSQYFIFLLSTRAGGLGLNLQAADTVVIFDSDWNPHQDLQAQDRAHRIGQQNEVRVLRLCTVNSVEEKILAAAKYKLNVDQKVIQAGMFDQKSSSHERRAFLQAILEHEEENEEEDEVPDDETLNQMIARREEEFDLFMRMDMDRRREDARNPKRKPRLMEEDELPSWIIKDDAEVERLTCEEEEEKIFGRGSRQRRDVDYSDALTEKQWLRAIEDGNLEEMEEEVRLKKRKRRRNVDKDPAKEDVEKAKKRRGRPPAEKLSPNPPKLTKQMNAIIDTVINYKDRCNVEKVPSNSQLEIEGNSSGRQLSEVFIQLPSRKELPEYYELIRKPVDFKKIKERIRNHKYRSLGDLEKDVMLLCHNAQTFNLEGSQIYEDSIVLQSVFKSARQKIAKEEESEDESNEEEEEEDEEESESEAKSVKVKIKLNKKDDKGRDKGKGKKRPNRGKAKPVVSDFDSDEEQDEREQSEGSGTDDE

SMILES | DC50 [µM] | Dmax [%]
Cc1ncsc1-c1ccc([C@H](C)NC(=O)[C@@H]2C[C@@H](O)CN2C(=O)[C@@H](c2onc(OCCN3CCC(O[C@H]4C[C@H](Oc5cc(N6C7CCC6CN(c6cc(-c8ccccc8O)nnc6N)C7)ccn5)C4)CC3)c2F)C(C)C)cn1 [compound 270, (2S,4R)-1-((2R)-2-(3-(2-(4-((1r,3R)-3-((4-(3-(3-amino-6-(2-hydroxyphenyl)pyridazin-4-yl)-3,8-diazabicyclo[3.2.1]octan-8-yl)pyridin-2-yl)oxy)cyclobutoxy)piperidin-1-yl)ethoxy)-4-fluoroisoxazol-5-yl)-3-methylbutanoyl)-4-hydroxy-N-((S)-1-(6-(4-methylthiazol-5-yl)pyridin-3-yl)ethyl)pyrrolidine-2-carboxamide] | < 0.0025 | > 75
Cc1ncsc1-c1ccc([C@H](C)NC(=O)[C@@H]2C[C@@H](O)CN2C(=O)[C@H](c2cc(OCC(=O)N3CCC(O[C@H]4C[C@H](Oc5cc(N6C7CCC6CN(c6cc(-c8ccccc8O)nnc6N)C7)ccn5)C4)CC3)no2)C(C)C)cn1 [compound 271, (2S,4R)-1-((2S)-2-(3-(2-(4-((1r,3S)-3-((4-(3-(3-amino-6-(2-hydroxyphenyl)pyridazin-4-yl)-3,8-diazabicyclo[3.2.1]octan-8-yl)pyridin-2-yl)oxy)cyclobutoxy)piperidin-1-yl)-2-oxoethoxy)isoxazol-5-yl)-3-methylbutanoyl)-4-hydroxy-N-((S)-1-(6-(4-methylthiazol-5-yl)pyridin-3-yl)ethyl)pyrrolidine-2-carboxamide] | > 0.03 | 
Cc1ncsc1-c1ccc([C@@H](COCC2CCOCC2)NC(=O)[C@@H]2C[C@@H](O)CN2C(=O)[C@H](c2cc(OCCN3CCN(CCOc4cc(N5C6CCC5CN(c5cc(-c7ccccc7O)nnc5N)C6)ccn4)CC3)no2)C(C)C)cc1 [compound 272, (2S,4R)-1-((2S)-2-(3-(2-(4-(2-((4-(3-(3-amino-6-(2-hydroxyphenyl)pyridazin-4-yl)-3,8-diazabicyclo[3.2.1]octan-8-yl)pyridin-2-yl)oxy)ethyl)piperazin-1-yl)ethoxy)isoxazol-5-yl)-3-methylbutanoyl)-4-hydroxy-N-((S)-1-(4-(4-methylthiazol-5-yl)phenyl)-2-((tetrahydro-2H-pyran-4-yl)methoxy)ethyl)pyrrolidine-2-carboxamide] | > 0.03 | 
Cc1ncsc1-c1ccc([C@@H](COCC2CCOCC2)NC(=O)[C@@H]2C[C@@H](O)CN2C(=O)[C@@H](c2cc(OCCN3CCN(CCOc4cc(N5C6CCC5CN(c5cc(-c7ccccc7O)nnc5N)C6)ccn4)CC3)no2)C(C)C)cc1 [compound 273, (2S,4R)-1-((2R)-2-(3-(2-(4-(2-((4-(3-(3-amino-6-(2-hydroxyphenyl)pyridazin-4-yl)-3,8-diazabicyclo[3.2.1]octan-8-yl)pyridin-2-yl)oxy)ethyl)piperazin-1-yl)ethoxy)isoxazol-5-yl)-3-methylbutanoyl)-4-hydroxy-N-((S)-1-(4-(4-methylthiazol-5-yl)phenyl)-2-((tetrahydro-2H-pyran-4-yl)methoxy)ethyl)pyrrolidine-2-carboxamide] | < 0.0025 | > 75
Cc1cnnn1-c1ccc([C@H](C)NC(=O)[C@@H]2C[C@@H](O)CN2C(=O)[C@H](c2cc(OCCN3CCN(CCOc4cc(N5C6CCC5CN(c5cc(-c7ccccc7O)nnc5N)C6)ccn4)CC3)no2)C(C)C)cc1 [compound 274, (2S,4R)-1-((2S)-2-(3-(2-(4-(2-((4-(3-(3-amino-6-(2-hydroxyphenyl)pyridazin-4-yl)-3,8-diazabicyclo[3.2.1]octan-8-yl)pyridin-2-yl)oxy)ethyl)piperazin-1-yl)ethoxy)isoxazol-5-yl)-3-methylbutanoyl)-4-hydroxy-N-((S)-1-(4-(5-methyl-1H-1,2,3-triazol-1-yl)phenyl)ethyl)pyrrolidine-2-carboxamide] | > 0.03 | 
